≈ marks a conversion by molar mass, not a printed value. Where “and” joins values, the source holds several entries; their conditions need not be identical. Equal values may be shown once. Entries after “also recorded” stand apart in the source; their conditions may differ. Read-outs that look alike come from different tables or passages of the source.
Experiments:
Type in all cases: in vivo, human
[1] = C-7 plasma pharmacokinetics after single oral administration
Experimental: The C-7 PK parameters were determined in plasma using non-compartmental methods using WinNonlin Pro (Version 5.2), as detailed in Table 3.
Biofluid concentrations were expressed in mass per volume units (ng/mL). All C-7 and AEDs concentrations below LLOQ were reported as zero in the concentration data listings. Concentrations below LLOQ were treated as zero in summary statistics of concentration data as well as for calculation of C-7 PK parameters. A geometric mean was not reported whenever at least one concentration was below the LLOQ (i.e. zero). Missing data were labeled as such and no imputation methods were used.
Terminal elimination rate constant (lambda_z) was calculated as the slope of the linear regression of the terminal phase of the logarithmic concentration-time profile for each individual dataset available. A minimum of three time points was used for determining lambda_z. Regression was performed without weighting, and a minimum value of 0.75 for Rsq_adjusted was necessary for acceptance.
The different areas under the concentration-time curve were calculated using the linear trapezoidal summation (both ascending and descending phase).
Descriptive statistics of pharmacokinetic parameters included mean, SD, and CV, minimum and maximum. The geometric mean was identified when presented. A range of values were presented for selected variables. Since Tmax is generally evaluated by a nonparametric method, median values and ranges were provided.
The patients received the study medication in the morning between 8:00 h and 9:00 h, at least 30 minutes after a light breakfast had been completed.

patients with PSE = assay: PK-PD relationship, Emax model for SPR; details: for EC50: Homo sapiens, read-out: mean (SD) EC50; for EC50 / mean (SD) Emax on the logit scale: mean across the 13 patients; for EC50 (C-7 concentration at 50% of the maximum reduction in SPR) / Emax (maximum reduction in SPR on the logit scale): estimate for each patient (15, 50 or 100 mg)
Experimental: The mean SPR per eye condition and plasma PK concentrations of C-7 50, 100, and 15 mg dose groups is shown in FIG. 3, FIG. 4 and FIG. 5, respectively.
A PK-PD model was developed sequentially for the SPR data. Firstly a pharmacokinetic model was fitted using nonlinear mixed effects methodology in NONMEM version VI to describe the 13 patients with both PK and PD data. A 3 compartment disposition model with first order absorption and absorption lag time was selected to describe the pharmacokinetic time profile for each patient. The between patient variability was described by exponential random effects on each pharmacokinetic parameter, with all parameters assumed to be independent between individuals. The residual error model combined the additive and proportional error terms. The estimated pharmacokinetic parameters for each patient were used to generate each patient's PK profile as an input to the pharmacodynamic model.
For the Pharmacodynamic response, SPR, an Emax model was fitted on the logit transformed scale:
where Base is the baseline SPR on the logit scale, Emax is the maximum reduction in SPR on the logit scale, EC50 is the concentration at which the 50% of the maximum reduction is obtained and C is C-7 concentration. For each patient, the PD parameters for the three eye conditions, eyes closure, eyes closed and eyes open, were estimated separately but with a common additive residual variance on the logit scale. The PD parameter estimates were highly variable across the 13 patients, with the estimation having trouble identifying Emax and EC50 (see Table 6 below).

[2] = PK of concomitant AEDs on co-administration of C-7; details: C-7 on Day 2; AED PK profiles Day 1 vs Days 2 and 3
Experimental: Similar AEDs concentration-time profiles were observed on Days 1, 2 and 3 for each patient. Two of the patients in Cohort I were also enrolled in Cohort II. Their lamotrigine PK profiles were similar in the 2 treatment periods. These observations confirm stable pre-existing treatment for all the patients.
AED concentrations were listed and summarized; analysis of level of exposure of AED(s) taken by the patient was performed on an ad-hoc basis as it depended on specifics of the AED.

[3] = Cohort I, C-7 50 mg, individual patients
[4] = Cohort II, C-7 100 mg, individual patients
[5] = Cohort III, C-7 15 mg, individual patients
[6] = patients with PSE (after light breakfast) vs healthy volunteer study (fasted)

SMILES: CC(C)c1cc2[nH]c(=O)n(NS(C)(=O)=O)c(=O)c2cc1-c1ccnn1C [Compound C-7, N-[7-Isopropyl-6-(2-methyl-2H-pyrazol-3-yl)-2,4-dioxo-1,4-dihydro-2H-quinazolin-3-yl]-methanesulfonamide]
- AUC0-24 h [1, 3]: 9838 ng·h/mL and 12564 ng·h/mL and 14162 ng·h/mL and 7043 ng·h/mL
- Cmax [1, 3]: 1910 ng/mL and 2140 ng/mL and 2800 ng/mL and 1410 ng/mL
- Tmax [1, 3]: 2.00 h and 2.92 h and 3.98 h and 3.87 h
- AUC0-24 h [1, 4]: 17924 ng·h/mL and 13877 ng·h/mL
- Cmax [1, 4]: 3470 ng/mL and 2950 ng/mL
- Tmax [1, 4]: 2.88 h and 2.00 h
- AUC0-24 h [1, 5]: 2906 ng·h/mL and 3878 ng·h/mL
- Cmax [1, 5]: 634 ng/mL and 701 ng/mL
- Tmax [1, 5]: 4.00 h and 1.97 h
- AUC(0-t) ([1]; human, plasma, oral, 15 mg, Cohort III, C-7 15 mg, individual patients, read-out: AUC0-24 h): 4270 ng·h/mL
- Cmax ([1]; human, plasma, oral, 15 mg, Cohort III, C-7 15 mg, individual patients, read-out: Cmax): 581 ng/mL
- Cmax ([1]; human, plasma, oral, 50 mg, Cohort I, C-7 50 mg, individual patients, read-out: Cmax): 1530 ng/mL
- Tmax ([1]; human, plasma, oral, 50 mg, Cohort I, C-7 50 mg, individual patients, read-out: Tmax): 3 h
- AUC(0-t) ([1]; human, plasma, oral, 100 mg, Cohort II, C-7 100 mg, individual patients, read-out: AUC0-24 h): 21300 ng·h/mL
- Cmax ([1]; human, plasma, oral, 100 mg, Cohort II, C-7 100 mg, individual patients, read-out: Cmax): 3700 ng/mL
- Tmax ([1]; human, plasma, oral, 100 mg, Cohort II, C-7 100 mg, individual patients, read-out: Tmax): 3 h
- AUC(0-t) ([1]; human, plasma, po, 15 mg, plasma, single oral 15 mg, Cohort III, n = 3, geometric mean [% CV geo mean], read-out: AUC0-6 hr): 2130 ng·h/mL
- AUC(0-t) ([1]; human, plasma, po, 15 mg, plasma, single oral 15 mg, Cohort III, n = 3, geometric mean [% CV geo mean], read-out: AUC0-24 hr): 3640 ng·h/mL
- AUC(0-t) ([1]; human, plasma, po, 15 mg, plasma, single oral 15 mg, Cohort III, n = 3, geometric mean [% CV geo mean], read-out: AUClast): 3660 ng·h/mL
- Cmax ([1]; human, plasma, po, 15 mg, plasma, single oral 15 mg, Cohort III, n = 3, geometric mean [% CV geo mean], read-out: Cmax): 637 ng/mL
- Tmax ([1]; human, plasma, po, 15 mg, plasma, single oral 15 mg, Cohort III, n = 3, median (min-max), read-out: Tmax): 2.98 h
- AUC(0-t) ([1]; human, plasma, po, 50 mg, plasma, single oral 50 mg, Cohort I, n = 6, geometric mean [% CV geo mean], read-out: AUC0-6 hr): 6790 ng·h/mL
- AUC(0-t) ([1]; human, plasma, po, 50 mg, plasma, single oral 50 mg, Cohort I, n = 6, geometric mean [% CV geo mean], read-out: AUC0-24 hr): 10600 ng·h/mL
- AUC(0-t) ([1]; human, plasma, po, 50 mg, plasma, single oral 50 mg, Cohort I, n = 6, geometric mean [% CV geo mean], read-out: AUClast): 10700 ng·h/mL
- Cmax ([1]; human, plasma, po, 50 mg, plasma, single oral 50 mg, Cohort I, n = 6, geometric mean [% CV geo mean], read-out: Cmax): 1990 ng/mL
- Tmax ([1]; human, plasma, po, 50 mg, plasma, single oral 50 mg, Cohort I, n = 6, median (min-max), read-out: Tmax): 2.96 h
- AUC(0-t) ([1]; human, plasma, po, 100 mg, plasma, single oral 100 mg, Cohort II, n = 4, geometric mean [% CV geo mean], read-out: AUC0-6 hr): 10200 ng·h/mL
- AUC(0-t) ([1]; human, plasma, po, 100 mg, plasma, single oral 100 mg, Cohort II, n = 4, geometric mean [% CV geo mean], read-out: AUC0-24 hr): 16900 ng·h/mL
- AUC(0-t) ([1]; human, plasma, po, 100 mg, plasma, single oral 100 mg, Cohort II, n = 4, geometric mean [% CV geo mean], read-out: AUClast): 17000 ng·h/mL
- Cmax ([1]; human, plasma, po, 100 mg, plasma, single oral 100 mg, Cohort II, n = 4, geometric mean [% CV geo mean], read-out: Cmax): 2980 ng/mL
- Tmax ([1]; human, plasma, po, 100 mg, plasma, single oral 100 mg, Cohort II, n = 4, median (min-max), read-out: Tmax): 2.94 h
- mean AUClast in patients higher than in healthy male subjects [1, 6]: 10-40%
- mean Cmax in patients higher than in healthy male subjects [1, 6]: 10-20%
- Tlag ([1]; plasma, single oral 15 mg, Cohort III, n = 3, median (min-max)): 0.00 (0.00-0.00) hr
- Tlag ([1]; plasma, single oral 50 mg, Cohort I, n = 6, median (min-max)): 0.00 (0.00-0.00) hr
- Tlag ([1]; plasma, single oral 100 mg, Cohort II, n = 4, median (min-max)): 0.00 (0.00-0.00) hr
- earliest time C-7 measurable in plasma ([1]; single 15, 50 or 100 mg dose): 0.25 h post-dose
- time of peak plasma concentration (median) ([1]; single 15, 50 or 100 mg dose): around 3 h post-dose
- time of peak plasma concentration, maximum in individual patients ([1]; single 15, 50 or 100 mg dose): 4 h
- time of peak plasma concentration, minimum in individual patients ([1]; single 15, 50 or 100 mg dose): approximately 2 h
- EC50 (patients with PSE; eyes closed): 3.75 µg/mL (≈ 9.93 µM)
- EC50 (patients with PSE; eyes closures): 2.25 µg/mL (≈ 5.97 µM)
- EC50 (patients with PSE; eyes open): 2.96 µg/mL (≈ 7.85 µM)
- EC50 (C-7 concentration at 50% of the maximum reduction in SPR) (patients with PSE; eyes closed): 219 ng/mL and 5 ng/mL and 1170 ng/mL and 310 ng/mL and 2040 ng/mL and 229 ng/mL and 9900 ng/mL and 2080 ng/mL and 9200 ng/mL
- Emax (maximum reduction in SPR on the logit scale) (patients with PSE; eyes closed): 0.963 and 2.54 and 1.79 and 2.47 and 6.99 and 0.58 and 0.05 and 30.9 and 49.5 (3×) and 0.487
- mean (SD) Emax on the logit scale (patients with PSE; eyes closed): 16.3 (21.7)
- EC50 (C-7 concentration at 50% of the maximum reduction in SPR) (patients with PSE; eyes closure): 1690 ng/mL and 9900 ng/mL and 320 ng/mL and 788 ng/mL and 1270 ng/mL and 5 ng/mL and 10 ng/mL and 814 ng/mL and 1410 ng/mL and 3080 ng/mL and 83.3 ng/mL
- Emax (maximum reduction in SPR on the logit scale) (patients with PSE; eyes closure): 2.38 and 41.5 and 0.571 and 49.5 (2×) and 3.25 and 2.39 and 0.05 (2×) and 9.23 and 1.31 and 7.67 and 0.495
- mean (SD) Emax on the logit scale (patients with PSE; eyes closures): 12.9 (19.6)
- EC50 (C-7 concentration at 50% of the maximum reduction in SPR) (patients with PSE; eyes open): 1470 ng/mL and 9900 ng/mL and 629 ng/mL and 131 ng/mL and 5 ng/mL and 137 ng/mL and 1610 ng/mL and 1880 ng/mL
- Emax (maximum reduction in SPR on the logit scale) (patients with PSE; eyes open): 1.14 and 40.8 and 1.03 and 49.5 (4×) and 14.5 and 1.29 and 0.05 (2×) and 2.66
- mean (SD) Emax on the logit scale (patients with PSE; eyes open): 21.6 (23.5)
- effect of co-administration of C-7 on the AED PK [2]: did not seem to affect the AED PK; also recorded: did not seem to affect the PK of selected AEDs; also recorded: did not appear to affect the AED PK

— patent US20140163050A1, “Use of 1H-quinazoline-2,4-diones” (priority 2011, published 2014)
